{"source": "the NIST ThermoML archive (doi:10.1021/je700191v)", "assay": "mn = molality of the nth substance listed, in mol/kg", "settings": "101 kPa, Liquid", "note": "Numbers after ± are expanded uncertainties."}
{"compound": "CC1(C)S[C@@H]2[C@H](NC(=O)Cc3ccccc3)C(=O)N2[C@H]1C(=O)[O-].[K+]", "note": "+ O", "values": [{"measurement": "mass density", "setting": "293.15 K, m1 = 0.01891", "result": "1000.62 ± 0.35", "unit": "kg/m3"}, {"measurement": "mass density", "setting": "293.15 K, m1 = 0.03922", "result": "1003.15 ± 0.36", "unit": "kg/m3"}, {"measurement": "mass density", "setting": "293.15 K, m1 = 0.05967", "result": "1005.7 ± 0.37", "unit": "kg/m3"}, {"measurement": "mass density", "setting": "293.15 K, m1 = 0.08039", "result": "1008.26 ± 0.38", "unit": "kg/m3"}, {"measurement": "mass density", "setting": "293.15 K, m1 = 0.1008", "result": "1010.74 ± 0.39", "unit": "kg/m3"}, {"measurement": "mass density", "setting": "293.15 K, m1 = 0.1217", "result": "1013.28 ± 0.4", "unit": "kg/m3"}, {"measurement": "mass density", "setting": "298.15 K, m1 = 0.01891", "result": "999.45 ± 0.35", "unit": "kg/m3"}, {"measurement": "mass density", "setting": "298.15 K, m1 = 0.03922", "result": "1001.98 ± 0.35", "unit": "kg/m3"}, {"measurement": "mass density", "setting": "298.15 K, m1 = 0.05967", "result": "1004.5 ± 0.36", "unit": "kg/m3"}, {"measurement": "mass density", "setting": "298.15 K, m1 = 0.08039", "result": "1007.04 ± 0.38", "unit": "kg/m3"}, {"measurement": "mass density", "setting": "298.15 K, m1 = 0.1008", "result": "1009.5 ± 0.39", "unit": "kg/m3"}, {"measurement": "mass density", "setting": "298.15 K, m1 = 0.1217", "result": "1011.99 ± 0.39", "unit": "kg/m3"}, {"measurement": "mass density", "setting": "303.15 K, m1 = 0.01952", "result": "998.081 ± 0.35", "unit": "kg/m3"}, {"measurement": "mass density", "setting": "303.15 K, m1 = 0.03888", "result": "1000.47 ± 0.35", "unit": "kg/m3"}, {"measurement": "mass density", "setting": "303.15 K, m1 = 0.05831", "result": "1002.85 ± 0.36", "unit": "kg/m3"}, {"measurement": "mass density", "setting": "303.15 K, m1 = 0.07995", "result": "1005.48 ± 0.37", "unit": "kg/m3"}, {"measurement": "mass density", "setting": "303.15 K, m1 = 0.1", "result": "1007.88 ± 0.38", "unit": "kg/m3"}, {"measurement": "mass density", "setting": "303.15 K, m1 = 0.1193", "result": "1010.19 ± 0.39", "unit": "kg/m3"}, {"measurement": "mass density", "setting": "308.15 K, m1 = 0.01952", "result": "996.399 ± 0.36", "unit": "kg/m3"}, {"measurement": "mass density", "setting": "308.15 K, m1 = 0.03888", "result": "998.73 ± 0.35", "unit": "kg/m3"}, {"measurement": "mass density", "setting": "308.15 K, m1 = 0.05831", "result": "1001.06 ± 0.35", "unit": "kg/m3"}, {"measurement": "mass density", "setting": "308.15 K, m1 = 0.07995", "result": "1003.59 ± 0.36", "unit": "kg/m3"}, {"measurement": "mass density", "setting": "308.15 K, m1 = 0.1", "result": "1006.02 ± 0.37", "unit": "kg/m3"}, {"measurement": "mass density", "setting": "308.15 K, m1 = 0.1193", "result": "1008.28 ± 0.38", "unit": "kg/m3"}]}
